Patent US20230115350A1 (Cedilla Therapeutics, Inc., priority 2021, published 2023)

Columns and labels:
[1] = target: TEAD1 protein (YAP Binding Domain) (Homo sapiens, UniProt P28347); assay: TEAD1 lipid pocket compound displacement assay (TR-FRET, Cy5-probe); settings: 60 minutes incubation at room temperature; TR-FRET 665 nm/620 nm; read-out: CDA IC50
Protocol: Compound Displacement Assay.
A TEAD1 lipid pocket displacement assay was carried out according to the following protocol. Purified His-tagged TEAD1 protein (YAP Binding Domain) was pre-mixed with a Cy5-probe (Cy5-conjugated to a small molecule that binds in the TEAD1 lipid pocket) and Terbium-labeled anti-His antibody (Cisbio Cat 61HI2TLB). The binding of the Cy5-probe to anti-His-Tb/His-tag TEAD1 complex yielded a TR-FRET signal. […] After 60 minutes incubation at room temperature of compounds with the His-TEAD1/anti-His-Tb/Cy5-probe complex, the plate was read on a plate reader (BMG ClarioStar Cat 430-1300) using TR-FRET mode with wavelengths of 665 nm/620 nm. The potency of compounds as TEAD1 lipid pocket binders was determined by IC50 value generated using a non-linear 4 parameter curve fit.

NCI-H226 = assay: 72H TEAD Proliferation Assay (Cell Titer-Glo 2.0); assay type: cell-based; settings: CTG 2.0, cell line not given
Protocol: The effect of TEAD inhibition on cell proliferation was assayed using Cell Titer Glo (CTG) 2.0 to measure response in mesothelioma cell lines NCI-H226 (ATCC, #CRL-5826) and NCI-H28 (ATCC, #CRL-5820).
The 72H TEAD Proliferation assay utilizes Cell Titer-Glo 2.0 (Promega, #G9243) to measure the proliferation of cells in the presence or absence of compound. Cell Titer-Glo 2.0 determines the amount of viable cells by quantifying ATP (an indication of metabolically active cells). It utilizes the conversion of Luciferin to Oxyluciferin and a luminescent signal with the use of ATP to report the quantity of viable cells in culture. Within cells that are continually growing, ATP is being synthesized to meet their metabolic demands, meanwhile the opposite is true for cells that are dying or slowing down their proliferation and either no longer using ATP or are using less, respectively. The NF2-deficient NCI-H226 has been genetically validated as a cell line that is sensitive to TEAD inhibition. The NF2-wild type NCI-H28 has been genetically validated as a cell line that is not sensitive to TEAD inhibition and grows independently of TEAD activity.
Compounds were screened against the responsive NCI-H226 cell line to assess the compounds' ability to inhibit TEAD and cell growth. Compounds were also screened against the non-responsive NCI-H28 cell line to ascertain whether the inhibition of cell growth was due to inhibition of the target TEAD or whether the inhibition was due to off-target cytotoxicity.
1) Assay ready plates (ARPs) were prepared by Echo acoustic liquid handler. For each compound, duplicate of 10-point half-log dilution series were dispensed in a 384-well microplate (Corning 3571).
5) NCI-H226 or NCI-H28 cells were harvested from culture in Assay Medium 1 and the multidrop Combi reagent dispenser was used to seed cells at 500 cells per 50 ul in each well of the ARPs and one Corning 3571 plate without compounds for Time 0 (TO) readout.
6) The TO plate was incubated for 2 hours at 37° C. with 5% CO2 to allow cells to settle, then the CTG Assay was performed.
7) All ARPs were incubated for 72 hours at 37° C. with 5% CO2, then the CTG Assay was performed for Time 72H (T72) readout.
8) CTG Assay: Bravo liquid handler (Agilent) was used to add 25 ul of CTG 2.0 to all columns of the plate except for Column 24, which was used to subtract out the background. After CTG addition, plates were placed on shaker at 800 RPM for 15 minutes at room temperature and kept in the dark. Luminescence was measured using EnVision multilabel plate reader with ultra-sensitive detection module.
9) Data Analysis: First background luminescence (no CTG wells) was subtracted from luminescence reading of all wells, then TO luminescence was subtracted from T72 luminescence. To compare anti-proliferative effect of compounds, GI50 was obtained by fitting dose response curves with nonlinear regression curve fit.

Sequence of TEAD1 protein (YAP Binding Domain) (P28347 209-426 limits assumed): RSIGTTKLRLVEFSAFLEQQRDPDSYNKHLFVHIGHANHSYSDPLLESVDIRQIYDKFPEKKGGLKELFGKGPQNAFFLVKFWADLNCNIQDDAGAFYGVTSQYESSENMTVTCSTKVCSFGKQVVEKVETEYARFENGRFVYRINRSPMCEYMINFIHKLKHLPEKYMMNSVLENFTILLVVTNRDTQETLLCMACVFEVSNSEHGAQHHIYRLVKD

SMILES	IC50 [1]	GI50 (NCI-H226; Homo sapiens, NCI-H226, 72 h)	GI50 (NCI-H226)
C=CC(=O)Nc1ccc(OCc2cncc(C(F)(F)F)c2)c(F)c1 [Compound 104, N-(3-fluoro-4-((5-(trifluoromethyl)pyridin-3-yl)methoxy)phenyl)acrylamide]	250 to 500 nM	250 to 1000 nM	
C=CC(=O)Nc1ccc(CCc2cccc(F)c2)c(F)c1 [Compound 1, N-(3-fluoro-4-(3-fluorophenethyl)phenyl)acrylamide]	≤ 250 nM	1000 to 3000 nM	
C=CC(=O)Nc1ccc(OCc2cccc(Cl)c2F)c(F)c1 [Compound 99, N-(4-((3-chloro-2-fluorobenzyl)oxy)-3-fluorophenyl)acrylamide]	≤ 250 nM	> 3000 nM	
C=CC(=O)Nc1ccc(OCc2ccc(F)c(F)c2)c(F)c1 [Compound 96, N-(4-((3,4-difluorobenzyl)oxy)-3-fluorophenyl)acrylamide]	≤ 250 nM	250 to 1000 nM	
C=CC(=O)Nc1ccc(Oc2cccc(C(C)(C)C)c2)c(F)c1 [Compound 110, N-(4-(3-(tert-butyl)phenoxy)-3-fluorophenyl)acrylamide]	250 to 500 nM	1000 to 3000 nM	
C=CC(=O)Nc1ccc(OCc2cccnc2Br)c(F)c1 [Compound 74, N-(4-((2-bromopyridin-3-yl)methoxy)-3-fluorophenyl)acrylamide]	> 2000 nM	> 3000 nM	
C=CC(=O)Nc1cc2nc(C3CCC(F)(F)CC3)oc2cc1F [Compound 138, N-(2-(4,4-difluorocyclohexyl)-6-fluorobenzo[d]oxazol-5-yl)acrylamide]	250 to 500 nM		1000 to 3000 nM
C=CC(=O)Nc1cc2nc(CC3CCC(F)(F)CC3)oc2cc1F [Compound 136, N-(2-((4,4-difluorocyclohexyl)methyl)-6-fluorobenzo[d]oxazol-5-yl)acrylamide]	250 to 500 nM	250 to 1000 nM	
C=CC(=O)Nc1ccc(OCC2CCCC(C(F)(F)F)C2)c(F)c1 (stereo not drawn) [Compound 91, N-(3-fluoro-4-((3-(trifluoromethyl)cyclohexyl)methoxy)phenyl)acrylamide]	≤ 250 nM	250 to 1000 nM	
C=CC(=O)Nc1ccc(OCc2cccc(F)c2)cc1F [Compound 45, N-(2-fluoro-4-((3-fluorobenzyl)oxy)phenyl)acrylamide]		> 3000 nM	
C=CC(=O)Nc1ccc(OCc2cncc(C(F)(F)F)c2)cc1C#N [Compound 42, N-(2-cyano-4-((5-(trifluoromethyl)pyridin-3-yl)methoxy)phenyl)acrylamide]	> 2000 nM	250 to 1000 nM	
C=CC(=O)Nc1ccc(OCC2CCC(F)(F)CC2)c2ocnc12 [Compound 21, N-(7-((4,4-difluorocyclohexyl)methoxy)benzo[d]oxazol-4-yl)acrylamide]	≤ 250 nM	≤ 250 nM	
C=CC(=O)Nc1ccc(OCc2cccc(F)c2)c(C(F)(F)F)c1 [Compound 9, N-(4-((3-fluorobenzyl)oxy)-3-(trifluoromethyl)phenyl)acrylamide]	≤ 250 nM	> 3000 nM	
C=CC(=O)Nc1ccc(Oc2ccc(C(C)(C)C)cc2)c(F)c1 [Compound 111, N-(4-(4-(tert-butyl)phenoxy)-3-fluorophenyl)acrylamide]	≤ 250 nM	250 to 1000 nM	
C=CC(=O)Nc1ccc(Oc2ccc(F)cc2)c(F)c1 [Compound 107, N-(3-fluoro-4-(4-fluorophenoxy)phenyl)acrylamide]	≤ 250 nM	250 to 1000 nM	
C=CC(=O)Nc1ccc(Oc2ccc(C)cc2)c(F)c1 [Compound 114, N-(3-fluoro-4-(p-tolyloxy)phenyl)acrylamide]	≤ 250 nM	> 3000 nM	
C=CC(=O)Nc1ccc(OCc2cccc(F)c2)c(C2CCCCC2)c1 [Compound 3, N-(3-cyclohexyl-4-((3-fluorobenzyl)oxy)phenyl)acrylamide]	500 to 2000 nM	> 3000 nM	
C=CC(=O)Nc1ccc(OCc2ccc(Cl)nc2)c(F)c1 [Compound 72, N-(4-((6-chloropyridin-3-yl)methoxy)-3-fluorophenyl)acrylamide]	500 to 2000 nM	> 3000 nM	

SMILES	IC50 [1]	GI50 (NCI-H226; Homo sapiens, NCI-H226, 72 h)	GI50 (NCI-H226)
C=CC(=O)Nc1ccc2c(c1)OC(C)(c1cccc(C(F)(F)F)c1)O2 (stereo not drawn) [147*, N-(2-methyl-2-(3-(trifluoromethyl)phenyl)benzo[d][1,3]dioxol-5-yl)acrylamide]	≤ 250 nM	250 to 1000 nM	
C=CC(=O)Nc1cc2nc(CC(C)(C)C)oc2cc1F [Compound 143, N-(6-fluoro-2-neopentylbenzo[d]oxazol-5-yl)acrylamide]	500 to 2000 nM	250 to 1000 nM	
C=CC(=O)Nc1cc2nc(CCCC(F)(F)F)oc2cc1F [Compound 133, N-(6-fluoro-2-(4,4,4-trifluorobutyl)benzo[d]oxazol-5-yl)acrylamide]		≤ 250 nM	
C=CC(=O)Nc1ccc(C2COc3ccccc3C2=O)c(F)c1 (stereo not drawn) [Compound 131, N-(3-fluoro-4-(4-oxochroman-3-yl)phenyl)acrylamide]	500 to 2000 nM		
C=CC(=O)Nc1ccc(OCc2cccc(F)c2)c2c1CCCC2 [Compound 15, N-(4-((3-fluorobenzyl)oxy)-5,6,7,8-tetrahydronaphthalen-1-yl)acrylamide]	250 to 500 nM		
C=CC(=O)Nc1ccc(N(Cc2cccc(F)c2)CC2CC2)c(F)c1 [Compound 17, N-(4-((cyclopropylmethyl)(3-fluorobenzyl)amino)-3-fluorophenyl)acrylamide]	≤ 250 nM		
C=CC(=O)Nc1ccc2c(c1)CCC(c1cccc(F)c1)O2 (stereo not drawn) [Compound 5, N-(2-(3-fluorophenyl)chroman-6-yl)acrylamide]	> 2000 nM		
C=CC(=O)Nc1ccc(OCc2cccc(C#N)c2)c(F)c1 [Compound 92, N-(4-((3-cyanobenzyl)oxy)-3-fluorophenyl)acrylamide]	500 to 2000 nM		
C=CC(=O)Nc1ccc(OCc2cnccc2Cl)c(F)c1 [Compound 57, N-(4-((4-chloropyridin-3-yl)methoxy)-3-fluorophenyl)acrylamide]	> 2000 nM		
C=CC(=O)Nc1ccc(OCC2CCC(F)(F)CC2)c(C)c1 [Compound 48, N-(4-((4,4-difluorocyclohexyl)methoxy)-3-methylphenyl)acrylamide]	≤ 250 nM		
C=CC(=O)Nc1ccc(OCc2cccc(F)c2)cc1C1CC1 [Compound 4, N-(2-cyclopropyl-4-((3-fluorobenzyl)oxy)phenyl)acrylamide]	250 to 500 nM		
C=CC(=O)Nc1ccc(OCc2ccc(C#N)cc2Cl)c(F)c1 [Compound 77, N-(4-((2-chloro-4-cyanobenzyl)oxy)-3-fluorophenyl)acrylamide]	> 2000 nM		
C=CC(=O)Nc1ccc(OC(C)C2CCC(F)(F)CC2)c(F)c1 (stereo not drawn) [Compound 30, N-(4-(1-(4,4-difluorocyclohexyl)ethoxy)-3-fluorophenyl)acrylamide]	250 to 500 nM		
C=CC(=O)Nc1ccc(OCc2cccc(F)c2)cc1C [Compound 47, N-(4-((3-fluorobenzyl)oxy)-2-methylphenyl)acrylamide]	500 to 2000 nM		
Fc1cc(-c2nnn[nH]2)ccc1OCC1CCC(F)(F)CC1 [Compound 29, 5-(4-((4,4-difluorocyclohexyl)methoxy)-3-fluorophenyl)-1H-tetrazole]	500 to 2000 nM		
C=CC(=O)Nc1ccc(OCc2ccc(Br)nc2)c(F)c1 [Compound 68, N-(4-((6-bromopyridin-3-yl)methoxy)-3-fluorophenyl)acrylamide]	500 to 2000 nM		
C=CC(=O)Nc1ccc(C2CCc3ccccc3C2)c(F)c1 (stereo not drawn) [Compound 119, N-(3-fluoro-4-(1,2,3,4-tetrahydronaphthalen-2-yl)phenyl)acrylamide]	500 to 2000 nM		
